ChEMBL document CHEMBL3997818, “Structure-activity relationship studies of 1-(1'-hydroxyalkyl)rupestonic acid methyl esters against influenza viruses” (Bioorg Med Chem Lett, 2017)
≈ marks a conversion by molar mass, not a printed value.

Legend:
[1] = Cytotoxicity against MDCK cells after 48 hrs by Reed and Muench analysis; format: cell-based, Canis lupus familiaris; conditions: dog, read-out: TC50
Influenza A virus H3N2 = experiment: Antiviral activity against Influenza A virus H3N2 infected in MDCK cells assessed as inhibition of virus-induced cytopathic effect after 40 hrs; format: functional, cell-based
Influenza A virus = experiment: Antiviral activity against Influenza A virus H1N1 infected in MDCK cells assessed as inhibition of virus-induced cytopathic effect after 40 hrs; format: functional, cell-based
Influenza B virus = experiment: Antiviral activity against Influenza B virus infected in MDCK cells assessed as inhibition of virus-induced cytopathic effect after 40 hrs; format: functional, cell-based
[2] = Selectivity index, ratio of TC50 for MDCK cells to IC50 for Influenza A virus H3N2 infected in MDCK cells; format: toxicity, cell-based; conditions: dog, read-out: Selectivity Index
[3] = Selectivity index, ratio of TC50 for MDCK cells to IC50 for Influenza A virus H1N1 infected in MDCK cells; format: toxicity, cell-based; conditions: dog, read-out: Selectivity Index
[4] = Selectivity index, ratio of TC50 for MDCK cells to IC50 for Influenza B virus infected in MDCK cells; format: toxicity, cell-based; conditions: dog, read-out: Selectivity Index

| Compound | CC50 at 48 h [1] [µg/mL] | IC50 (Influenza A virus H3N2) [µg/mL] | IC50 (Influenza A virus) [µg/mL] | IC50 (Influenza B virus) [µg/mL] | selectivity ratio [2] | selectivity ratio [3] | selectivity ratio [4] |
| --- | --- | --- | --- | --- | --- | --- | --- |
| C=C(C(=O)OC)[C@@H]1CC[C@H](C)[C@H]2C(=C(C)C(=O)[C@@H]2C(O)c2ccc(N(C)C)cc2)C1 (single isomer, unassigned) | 32.1 (≈ 78 µM) | 18.5 (≈ 45 µM) | 10.7 (≈ 26 µM) | > 18.5 | 1.7 | 3 | – |
| C=C(C(=O)OC)[C@@H]1CC[C@H](C)[C@@H]2CC(=O)C(C)=C2C1 | 55.6 (≈ 212 µM) | 19 (≈ 72.4 µM) | > 18.5 | > 18.5 | 3 | – | – |
| C=C(C(=O)OC)[C@@H]1CC[C@H](C)[C@H]2C(=C(C)C(=O)[C@@H]2C(O)c2cc(Cl)cc(Cl)c2)C1 (single isomer, unassigned) | 10.7 (≈ 24.4 µM) | 6 (≈ 13.7 µM) | > 6.17 | > 6.17 | 1.7 | – | – |
| C=C(C(=O)OC)[C@@H]1CC[C@H](C)[C@H]2C(=C(C)C(=O)[C@@H]2C(O)c2ccccc2)C1 (single isomer, unassigned) | 12.8 (≈ 34.8 µM) | 6 (≈ 16.3 µM) | 6.17 (≈ 16.7 µM) | > 6.17 | 2.1 | 2.1 | – |
| C=C(C(=O)OC)[C@@H]1CC[C@H](C)[C@H]2C(=C(C)C(=O)[C@@H]2C(O)c2ccc([N+](=O)[O-])s2)C1 (single isomer, unassigned) | 4.28 (≈ 10.2 µM) | > 2.06 | 1.6 (≈ 3.81 µM) | 2.06 (≈ 4.91 µM) | – | 2.7 | 2.1 |
| CCOC(=O)C1=C[C@@H](OC(CC)CC)[C@H](NC(C)=O)[C@@H](N)C1 [OSELTAMIVIR] | – | 1.7 (≈ 5.44 µM) | 3.9 (≈ 12.5 µM) | – | – | – | – |
| C=C(C(=O)OC)[C@@H]1CC[C@H](C)[C@H]2C(=C(C)C(=O)[C@@H]2C(O)c2ccncc2)C1 (single isomer, unassigned) | 80.1 (≈ 217 µM) | > 18.5 | 10.7 (≈ 28.9 µM) | 18.5 (≈ 50.1 µM) | – | 7.5 | 4.3 |
| C=C(C(=O)OC)[C@@H]1CC[C@H](C)[C@H]2C(=C(C)C(=O)[C@@H]2C(O)c2ccc(OC)cc2)C1 (single isomer, unassigned) | 80.1 (≈ 201 µM) | > 18.5 | > 18.5 | 18.5 (≈ 46.5 µM) | – | – | 4.3 |
| C=C(C(=O)OC)[C@@H]1CC[C@H](C)[C@H]2C(=C(C)C(=O)[C@@H]2C(O)c2ccc(OC(F)(F)F)cc2)C1 (single isomer, unassigned) | 32.1 (≈ 70.9 µM) | 18 (≈ 39.8 µM) | > 18.5 | > 18.5 | 1.7 | – | – |
| C=C(C(=O)O)[C@@H]1CC[C@H](C)[C@@H]2CC(=O)C(C)=C2C1 [PECHUELOIC ACID] | 240 (≈ 968 µM) | 55.6 (≈ 224 µM) | 55.6 (≈ 224 µM) | 24 (≈ 96.6 µM) | 4.3 | 4.3 | 10 |
| C=C(C(=O)OC)[C@@H]1CC[C@H](C)[C@H]2C(=C(C)C(=O)[C@@H]2C(O)c2cccs2)C1 (single isomer, unassigned) | 8.9 (≈ 23.8 µM) | 1.19 (≈ 3.18 µM) | > 2.06 | > 2.06 | 7.5 | – | – |
| NC(=O)c1ncn([C@@H]2O[C@H](CO)[C@@H](O)[C@H]2O)n1 [RIBAVIRIN] | – | 1.1 (≈ 4.5 µM) | 2.1 (≈ 8.6 µM) | 0.8 (≈ 3.28 µM) | 1100 | 560 | 1400 |
| C=C(C(=O)OC)[C@@H]1CC[C@H](C)[C@H]2C(=C(C)C(=O)[C@@H]2[C@@H](C)O)C1 | 500 (≈ 1630 µM) | > 167 | 90 (≈ 294 µM) | 72 (≈ 235 µM) | – | 5 | 7 |
| C=C(C(=O)OC)[C@@H]1CC[C@H](C)[C@H]2C(=C(C)C(=O)[C@@H]2C(O)c2cc(OC)c(OC)c(OC)c2)C1 (single isomer, unassigned) | 167 (≈ 363 µM) | 56 (≈ 122 µM) | 13 (≈ 28.4 µM) | > 55.6 | 3 | 13 | – |
| C=C(C(=O)OC)[C@@H]1CC[C@H](C)[C@H]2C(=C(C)C(=O)[C@@H]2[C@H](O)/C=C(\C)CCC=C(C)C)C1 | 3.56 (≈ 8.59 µM) | 1.6 (≈ 3.86 µM) | 2.06 (≈ 4.97 µM) | 1.2 (≈ 2.89 µM) | 2.2 | 1.7 | 3 |
| C=C(C(=O)OC)[C@@H]1CC[C@H](C)[C@H]2C(=C(C)C(=O)[C@@H]2C(O)c2ccc(F)cc2)C1 (single isomer, unassigned) | 80.1 (≈ 207 µM) | > 18.5 | 19 (≈ 49.2 µM) | 11 (≈ 28.5 µM) | – | 4.3 | 7.5 |
| C=C(C(=O)OC)[C@@H]1CC[C@H](C)[C@H]2C(=C(C)C(=O)[C@@H]2C(O)c2cc(C(F)(F)F)cc(C(F)(F)F)c2)C1 (single isomer, unassigned) | 32.1 (≈ 63.6 µM) | 18.5 (≈ 36.7 µM) | 11 (≈ 21.8 µM) | > 18.5 | 1.7 | 3 | – |
| C=C(C(=O)OC)[C@@H]1CC[C@H](C)[C@H]2C(=C(C)C(=O)[C@@H]2C(O)c2cc(F)cc(F)c2)C1 (single isomer, unassigned) | 32.1 (≈ 79.3 µM) | 14 (≈ 34.6 µM) | 2.63 (≈ 6.5 µM) | 18.5 (≈ 45.8 µM) | 2.2 | 12.2 | 1.7 |
| C=C(C(=O)OC)[C@@H]1CC[C@H](C)[C@H]2C(=C(C)C(=O)[C@@H]2[C@H](O)CC)C1 | 167 (≈ 520 µM) | > 55.6 | 14.4 (≈ 44.8 µM) | 18.5 (≈ 57.8 µM) | – | 9 | 7 |
